From US11739070B2, “C5A receptor modulators” (IDORSIA PHARMACEUTICALS LTD, priority 2018, dated 2023)

target: T1, C5AR1 (Homo sapiens, UniProt P21730); test: hC5a DISCO IC50 assay (PathHunter beta-arrestin, antagonist mode); type: cell-based; conditions: CHO-K1 C5AR1 beta-arrestin cell line; antagonist vs 1-10 nM C5a agonist; geometric mean values; read-out: C5aR IC50
T1 construct: host or cells: CHO-K1
T1 sequence (P21730 1-350): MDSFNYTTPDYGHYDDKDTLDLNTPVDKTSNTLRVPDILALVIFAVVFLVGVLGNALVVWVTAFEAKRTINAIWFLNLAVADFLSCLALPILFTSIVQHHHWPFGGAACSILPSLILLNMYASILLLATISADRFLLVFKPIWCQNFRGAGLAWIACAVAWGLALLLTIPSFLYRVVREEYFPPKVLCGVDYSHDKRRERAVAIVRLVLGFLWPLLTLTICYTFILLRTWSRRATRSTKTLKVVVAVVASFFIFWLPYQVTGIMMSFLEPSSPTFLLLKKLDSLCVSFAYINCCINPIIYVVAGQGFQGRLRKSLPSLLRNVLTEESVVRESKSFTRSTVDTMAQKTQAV
Procedure, shortened: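 Antagonist added first, then 1-10 nM C5a agonist; cells incubated 1.5 h at 37 °C. Beta-arrestin signal developed with PathHunter detection reagent, 45 min at RT. IC50 in nmol/l from serial antagonist dilutions, reported as geometric mean of several measurements.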

Row | Structure (SMILES) | IC50 [µM]
1 | COc1cccc2c1n(Cc1ccccc1C(F)(F)F)c(=O)n2[C@@H]1CCN(c2c(F)cccc2CO)C1 [Example 88, 1-[(R)-1-(2-Fluoro-6-hydroxymethyl-phenyl)-pyrrolidin-3-yl]-4-methoxy-3-(2-trifluoromethyl-benzyl)-1,3-dihydro-benzoimidazol-2-one] | 0.039
2 | COc1cccc2c1n(Cc1ccccc1C(F)(F)F)c(=O)n2[C@@H]1CCN(c2c(F)cccc2C(C)O)C1 (stereo partly drawn) [Example 89, 1-{(R)-1-[2-Fluoro-6-(1-hydroxy-ethyl)-phenyl]-pyrrolidin-3-yl}-4-methoxy-3-(2-trifluoromethyl-benzyl)-1,3-dihydro-benzoimidazol-2-one] | 0.044
3 | COc1cccc2c1n(Cc1ccccc1C(F)(F)F)c(=O)n2[C@@H]1CCN(c2c(F)cccc2C(C)(C)O)C1 [Example 91, 1-{(R)-1-[2-Fluoro-6-(1-hydroxy-1-methyl-ethyl)-phenyl]-pyrrolidin-3-yl}-4-methoxy-3-(2-trifluoromethyl-benzyl)-1,3-dihydro-benzoimidazol-2-one] | 0.07
4 | COc1ccnnc1Cn1c(=O)n([C@@H]2CCN(c3c(C)cccc3F)C2)c2cccc(OC)c21 [Example 95, 1-[(R)-1-(2-Fluoro-6-methyl-phenyl)-pyrrolidin-3-yl]-4-methoxy-3-(4-methoxy-pyridazin-3-ylmethyl)-1,3-dihydro-benzoimidazol-2-one] | 0.191
5 | COC(=O)c1cccc2c1n(Cc1ccccc1C(F)(F)F)c(=O)n2[C@@H]1CCN(c2c(F)cccc2C#N)C1 [Example 98, 1-[(R)-1-(2-Cyano-6-fluoro-phenyl)-pyrrolidin-3-yl]-2-oxo-3-(2-trifluoromethyl-benzyl)-2,3-dihydro-1H-benzoimidazole-4-carboxylic acid methyl ester] | 0.165
6 | CN(C)C(=O)c1cccc2c1n(Cc1ccccc1C(F)(F)F)c(=O)n2[C@@H]1CCN(c2c(F)cccc2C#N)C1 [Example 101, 1-[(R)-1-(2-Cyano-6-fluoro-phenyl)-pyrrolidin-3-yl]-2-oxo-3-(2-trifluoromethyl-benzyl)-2,3-dihydro-1H-benzoimidazole-4-carboxylic acid dimethylamide] | 1.58
7 | CNCc1cccc(F)c1N1CC[C@@H](n2c(=O)n(Cc3ccccc3C(F)(F)F)c3c(OC)cccc32)C1 [Example 103, 1-[(R)-1-(2-Fluoro-6-methylaminomethyl-phenyl)-pyrrolidin-3-yl]-4-methoxy-3-(2-trifluoromethyl-benzyl)-1,3-dihydro-benzoimidazol-2-one] | 0.669
8 | COc1cccc2c1n(Cc1ccccc1C(F)(F)F)c(=O)n2[C@@H]1CCN(c2c(F)cccc2CN(C)CCO)C1 [Example 107, 1-[(R)-1-(2-Fluoro-6-{[(2-hydroxy-ethyl)-methyl-amino]-methyl}-phenyl)-pyrrolidin-3-yl]-4-methoxy-3-(2-trifluoromethyl-benzyl)-1,3-dihydro-benzoimidazol-2-one] | 1.32
9 | COc1cccc2c1n(Cc1ccccc1C(F)(F)F)c(=O)n2[C@@H]1CCN(c2c(F)cccc2CN2CCC2)C1 [Example 108, 1-[(R)-1-(2-Azetidin-1-ylmethyl-6-fluoro-phenyl)-pyrrolidin-3-yl]-4-methoxy-3-(2-trifluoromethyl-benzyl)-1,3-dihydro-benzoimidazol-2-one] | 0.36
10 | COc1cccc2c1n(Cc1nccnc1C(F)(F)F)c(=O)n2[C@@H]1CCN(c2c(F)cccc2C#N)C1 [Example 111, 3-Fluoro-2-{(R)-3-[4-methoxy-2-oxo-3-(3-trifluoromethyl-pyrazin-2-ylmethyl)-2,3-dihydro-benzoimidazol-1-yl]-pyrrolidin-1-yl}-benzonitrile] | 0.264
11 | COc1nccnc1Cn1c(=O)n([C@@H]2CCN(c3c(F)cccc3C#N)C2)c2cccc(OC)c21 [Example 112, 3-Fluoro-2-{(R)-3-[4-methoxy-3-(3-methoxy-pyrazin-2-ylmethyl)-2-oxo-2,3-dihydro-benzoimidazol-1-yl]-pyrrolidin-1-yl}-benzonitrile] | 0.511

The remaining molecules from weak to strong by IC50, led by results:

Row | IC50 [µM] | Structure (SMILES)
12 | 4.48 | COc1ccccc1Cn1c(=O)n([C@@H]2CCN(c3c(F)cccc3C#N)C2)c2ncnc(OC)c21 [Example 105, 3-Fluoro-2-{(R)-3-[6-methoxy-7-(2-methoxy-benzyl)-8-oxo-7,8-dihydro-purin-9-yl]-pyrrolidin-1-yl}-benzonitrile]
13 | 2.24 | COc1ncncc1Cn1c(=O)n(C2CCN(c3c(F)cccc3C#N)CC2)c2cccc(OC)c21 [Example 113, 3-Fluoro-2-{4-[4-methoxy-3-(4-methoxy-pyrimidin-5-ylmethyl)-2-oxo-2,3-dihydro-benzoimidazol-1-yl]-piperidin-1-yl}-benzonitrile]
14 | 2.02 | COc1cc(Cl)nnc1Cn1c(=O)n([C@@H]2CCN(c3c(C)cccc3F)C2)c2cccc(OC)c21 [Example 92, 3-(6-Chloro-4-methoxy-pyridazin-3-ylmethyl)-1-[(R)-1-(2-fluoro-6-methyl-phenyl)-pyrrolidin-3-yl]-4-methoxy-1,3-dihydro-benzoimidazol-2-one]
15 | 1.43 | N#Cc1cccc(F)c1N1CC[C@@H](n2c(=O)n(Cc3ccccc3C(F)(F)F)c3c(C(N)=O)cccc32)C1 [Example 100, 1-[(R)-1-(2-Cyano-6-fluoro-phenyl)-pyrrolidin-3-yl]-2-oxo-3-(2-trifluoromethyl-benzyl)-2,3-dihydro-1H-benzoimidazole-4-carboxylic acid amide]
16 | 1.35 | COc1nccnc1Cn1c(=O)n(C2CCN(c3c(F)cccc3C#N)CC2)c2cccc(OC)c21 [Example 97, 3-Fluoro-2-{4-[4-methoxy-3-(3-methoxy-pyrazin-2-ylmethyl)-2-oxo-2,3-dihydro-benzoimidazol-1-yl]-piperidin-1-yl}-benzonitrile]
17 | 0.863 | COc1ncnc2c1n(Cc1ccccc1C(F)(F)F)c(=O)n2[C@@H]1CCN(c2c(F)cccc2C#N)C1 [Example 104, 3-Fluoro-2-{(R)-3-[6-methoxy-8-oxo-7-(2-trifluoromethyl-benzyl)-7,8-dihydro-purin-9-yl]-pyrrolidin-1-yl}-benzonitrile]
18 | 0.759 | N#Cc1cccc(F)c1N1CC[C@@H](n2c(=O)n(Cc3ccccc3C(F)(F)F)c3c(CO)cccc32)C1 [Example 102, 3-Fluoro-2-{(R)-3-[4-hydroxymethyl-2-oxo-3-(2-trifluoromethyl-benzyl)-2,3-dihydro-benzoimidazol-1-yl]-pyrrolidin-1-yl}-benzonitrile]
19 | 0.629 | COc1cccc2c1n(Cc1ccccc1C(F)(F)F)c(=O)n2[C@@H]1CCN(c2c(C#N)c(C)nn2C)C1 [Example 87, 5-{(R)-3-[4-Methoxy-2-oxo-3-(2-trifluoromethyl-benzyl)-2,3-dihydro-benzoimidazol-1-yl]-pyrrolidin-1-yl}-1,3-dimethyl-1H-pyrazole-4-carbonitrile]
20 | 0.391 | CNC(=O)c1cccc2c1n(Cc1ccccc1C(F)(F)F)c(=O)n2[C@@H]1CCN(c2c(F)cccc2C#N)C1 [Example 99, 1-[(R)-1-(2-Cyano-6-fluoro-phenyl)-pyrrolidin-3-yl]-2-oxo-3-(2-trifluoromethyl-benzyl)-2,3-dihydro-1H-benzoimidazole-4-carboxylic acid methylamide]
21 | 0.313 | COc1cccc(C)c1N1CC[C@@H](n2c(=O)n(Cc3ccccc3C(F)(F)F)c3c(=O)[nH]ccc32)C1 [Example 94, 1-[(R)-1-(2-Methoxy-6-methyl-phenyl)-pyrrolidin-3-yl]-3-(2-trifluoromethyl-benzyl)-3,5-dihydro-1H-imidazo[4,5-c]pyridine-2,4-dione]
22 | 0.231 | COc1cccc2c1n(Cc1nccnc1C(F)(F)F)c(=O)n2C1CCN(c2c(F)cccc2C#N)CC1 [Example 96, 3-Fluoro-2-{4-[4-methoxy-2-oxo-3-(3-trifluoromethyl-pyrazin-2-ylmethyl)-2,3-dihydro-benzoimidazol-1-yl]-piperidin-1-yl}-benzonitrile]
23 | 0.227 | COc1cccc2c1n(Cc1ccccc1C(F)(F)F)c(=O)n2[C@@H]1CCN(c2c(F)cccc2CN(C)C)C1 [Example 106, 1-[(R)-1-(2-Dimethylaminomethyl-6-fluoro-phenyl)-pyrrolidin-3-yl]-4-methoxy-3-(2-trifluoromethyl-benzyl)-1,3-dihydro-benzoimidazol-2-one]
24 | 0.149 | Cc1cccc(C)c1N1CC[C@@H](n2c(=O)n(Cc3ccccc3C(F)(F)F)c3c(=O)[nH]ccc32)C1 [Example 93, 1-[(R)-1-(2,6-Dimethyl-phenyl)-pyrrolidin-3-yl]-3-(2-trifluoromethyl-benzyl)-3,5-dihydro-1H-imidazo[4,5-c]pyridine-2,4-dione]
25 | 0.061 | COc1ccccc1Cn1c(=O)n([C@@H]2CCN(c3c(F)cccc3C#N)C2)c2cccc(OC)c21 [Example 109, 3-Fluoro-2-{(R)-3-[4-methoxy-3-(2-methoxy-benzyl)-2-oxo-2,3-dihydro-benzoimidazol-1-yl]-pyrrolidin-1-yl}-benzonitrile]
26 | 0.038 | COc1cccc2c1n(Cc1ccccc1C(F)(F)F)c(=O)n2[C@@H]1CCN(c2c(F)cccc2C(C)=O)C1 [Example 90, 1-[(R)-1-(2-Acetyl-6-fluoro-phenyl)-pyrrolidin-3-yl]-4-methoxy-3-(2-trifluoromethyl-benzyl)-1,3-dihydro-benzoimidazol-2-one]
27 | 0.006 | COc1ccccc1Cn1c(=O)n([C@@H]2CCN(c3c(C)cccc3F)C2)c2cccc(OC)c21 [Example 110, 1-[(R)-1-(2-Fluoro-6-methyl-phenyl)-pyrrolidin-3-yl]-4-methoxy-3-(2-methoxy-benzyl)-1,3-dihydro-benzoimidazol-2-one]
